In US8541395B2 (priority 2009, dated 2013):

Assays:
Kir3.1/3.4 = molecular target: T1, Kir3.1/3.4 (Homo sapiens, UniProt P48544+P48549); experiment: Patch clamp assay, ion channel inhibition; assay type: cell-based; details: 300 μM; n=2
T1 sequence (P48549 1-501): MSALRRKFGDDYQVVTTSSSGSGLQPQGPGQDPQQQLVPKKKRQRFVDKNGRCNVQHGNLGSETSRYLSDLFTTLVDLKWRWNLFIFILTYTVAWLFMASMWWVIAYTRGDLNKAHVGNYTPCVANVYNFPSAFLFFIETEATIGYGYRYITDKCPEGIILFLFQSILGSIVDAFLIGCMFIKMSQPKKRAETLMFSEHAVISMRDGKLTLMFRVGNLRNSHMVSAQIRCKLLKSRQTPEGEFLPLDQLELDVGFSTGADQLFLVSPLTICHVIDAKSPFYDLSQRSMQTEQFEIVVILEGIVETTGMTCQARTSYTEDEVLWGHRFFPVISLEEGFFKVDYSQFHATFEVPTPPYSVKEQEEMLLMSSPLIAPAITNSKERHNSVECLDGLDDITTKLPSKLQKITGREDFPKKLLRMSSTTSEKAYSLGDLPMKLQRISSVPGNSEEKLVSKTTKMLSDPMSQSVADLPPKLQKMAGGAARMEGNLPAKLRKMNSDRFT
T1 sequence (P48544 1-419): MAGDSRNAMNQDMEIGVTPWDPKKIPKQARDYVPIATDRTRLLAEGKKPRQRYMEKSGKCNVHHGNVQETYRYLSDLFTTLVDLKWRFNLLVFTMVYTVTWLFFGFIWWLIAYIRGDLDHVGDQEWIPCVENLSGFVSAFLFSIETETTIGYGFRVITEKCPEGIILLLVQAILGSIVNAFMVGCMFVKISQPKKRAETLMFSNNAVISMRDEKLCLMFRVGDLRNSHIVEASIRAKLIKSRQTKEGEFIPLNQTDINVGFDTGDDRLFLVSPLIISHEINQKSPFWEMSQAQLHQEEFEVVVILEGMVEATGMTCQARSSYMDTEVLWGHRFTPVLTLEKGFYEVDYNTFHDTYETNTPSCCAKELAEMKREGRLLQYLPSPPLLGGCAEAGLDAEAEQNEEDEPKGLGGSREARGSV
Description: (§1) The studies were conducted according to the conventional procedures.
(§2) The exposure duration of each channel was 5 minutes. […] Any left current after exposure to this dose was digitally subtracted to eliminate the contribution of any endogenous current.

Kir2.1 = molecular target: T2, Kir2.1 (Homo sapiens, UniProt P63252); experiment: Patch clamp assay, ion channel inhibition; assay type: cell-based; details: 100 μM; n=2
T2 sequence (P63252 1-427): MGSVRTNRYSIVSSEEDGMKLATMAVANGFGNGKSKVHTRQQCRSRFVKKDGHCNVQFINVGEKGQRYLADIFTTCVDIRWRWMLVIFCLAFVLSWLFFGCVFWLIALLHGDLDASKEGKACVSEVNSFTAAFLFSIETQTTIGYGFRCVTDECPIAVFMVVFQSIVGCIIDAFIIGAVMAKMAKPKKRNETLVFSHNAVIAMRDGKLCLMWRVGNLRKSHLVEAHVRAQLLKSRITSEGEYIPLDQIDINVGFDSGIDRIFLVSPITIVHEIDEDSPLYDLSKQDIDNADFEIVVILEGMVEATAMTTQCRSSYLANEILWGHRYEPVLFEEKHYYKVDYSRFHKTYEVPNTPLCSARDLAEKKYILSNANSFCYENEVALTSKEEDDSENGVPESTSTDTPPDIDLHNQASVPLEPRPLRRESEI

male Swiss mice [1] = experiment: Formalin assay (intraplantar 4% formalin, phases 1 and 2) in mice
left atrium of rats = experiment: Inotropism of isolated rat atrium (cardiac contraction force)
Description: The left atrium of rats was used to assess the inotropic activity. The data were expressed as contraction force (g of tension), and were compared to the results obtained with bupivacaine.
The application of square pulses (5 V, 5 ms, 2 Hz) in the left atrium with frequency of 120 bpm was sufficient to produce a cardiac contraction force of 0.63±0.09 g of tension.

right atrium of rats = experiment: Chronotropism of isolated rat atrium (frequency of spontaneous contractions); details: 10^−7 M to 10^−4 M; n=6; p>0.05
Description: The right rat atrium was used to assess the chronotropic activity. The values of the spontaneous mechanical activity of the right atrium were expressed in contractions frequency or beats per minute (bpm). The heart rate was 298±50 contractions per minute in the rat right atrium.

male Swiss mice [2] = experiment: Contortion assay (0.6% acetic acid, abdominal contortions) in mice
[3] = test system: rats with sciatic nerve ligature; experiment: Chronic constrictive injury (CCI) model, hyperalgesia (Randall & Selitto paw pressure)
male Swiss mice [4] = experiment: Hot plate assay
male Swiss mice [5] = experiment: Tail flick assay
[6] = test system: rats with sciatic nerve ligature; experiment: Chronic constrictive injury (CCI) model, allodynia (von Frey); details: for antinociceptive effect on allodynia: p<0.05
KvLQT/minK = molecular target: T3, KvLQT/minK (Homo sapiens, UniProt P51787); experiment: Patch clamp assay, ion channel inhibition; assay type: cell-based; details: 30 μM; n=2
T3 construct: expressed in transfected cells
Description: as §1, §2

Kv4.3 = molecular target: T4, Kv4.3 (Homo sapiens, UniProt Q9UK17); experiment: Patch clamp assay, ion channel inhibition; details: read-out: Mean % inhibition (positive control)
T4 sequence (Q9UK17 1-655): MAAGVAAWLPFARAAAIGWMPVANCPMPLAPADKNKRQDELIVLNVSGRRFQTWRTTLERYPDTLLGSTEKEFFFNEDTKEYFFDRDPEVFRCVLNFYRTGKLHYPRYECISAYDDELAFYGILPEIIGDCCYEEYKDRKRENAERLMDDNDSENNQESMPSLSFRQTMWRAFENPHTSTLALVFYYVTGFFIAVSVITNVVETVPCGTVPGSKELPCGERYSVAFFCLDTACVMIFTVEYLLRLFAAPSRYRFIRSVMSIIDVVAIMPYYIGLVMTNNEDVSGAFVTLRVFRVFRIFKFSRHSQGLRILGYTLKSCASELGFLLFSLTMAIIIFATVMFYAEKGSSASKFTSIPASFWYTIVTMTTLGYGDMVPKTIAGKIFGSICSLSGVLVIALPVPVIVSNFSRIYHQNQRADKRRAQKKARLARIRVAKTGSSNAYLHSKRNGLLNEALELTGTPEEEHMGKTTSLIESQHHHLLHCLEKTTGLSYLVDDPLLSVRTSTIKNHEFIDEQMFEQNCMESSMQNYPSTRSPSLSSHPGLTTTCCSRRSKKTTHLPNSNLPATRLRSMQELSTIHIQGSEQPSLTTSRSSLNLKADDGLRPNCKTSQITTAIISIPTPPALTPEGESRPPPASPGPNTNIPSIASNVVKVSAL
Description: as §1, §2

Cav3.2 = Cav3.2 (Homo sapiens, UniProt O95180); assay type: cell-based; details: 100 μM; n=2
Description: as §1, §2

Kv1.5 = Kv1.5 (Homo sapiens, UniProt P22460); experiment: Patch clamp assay, ion channel inhibition; assay type: cell-based; details: 2000 μM; n=2
Description: as §1, §2

Kir6.2/SUR2A = Kir6.2/SUR2A (Homo sapiens, UniProt O60706+Q14654); experiment: Patch clamp assay, ion channel inhibition; assay type: cell-based; details: n=2, read-out: Mean % inhibition (positive control)
Description: as §1, §2

[7] = naloxone 5 mg/kg i.p., morphine 10 mg/kg, telocinobufagin 5 mg/kg i.p.

Sequence of Kir6.2/SUR2A (Q14654 whole entry): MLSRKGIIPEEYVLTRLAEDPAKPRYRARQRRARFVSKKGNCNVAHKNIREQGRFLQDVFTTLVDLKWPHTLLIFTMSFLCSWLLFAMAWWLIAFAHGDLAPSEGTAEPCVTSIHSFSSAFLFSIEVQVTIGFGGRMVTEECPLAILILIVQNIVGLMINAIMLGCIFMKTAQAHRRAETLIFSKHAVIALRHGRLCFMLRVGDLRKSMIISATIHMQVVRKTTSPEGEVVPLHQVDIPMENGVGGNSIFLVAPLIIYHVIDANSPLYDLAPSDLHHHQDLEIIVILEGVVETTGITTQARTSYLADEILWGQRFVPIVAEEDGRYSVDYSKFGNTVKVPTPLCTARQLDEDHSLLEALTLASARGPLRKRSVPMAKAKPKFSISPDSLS
Sequence of Kir6.2/SUR2A (O60706 whole entry): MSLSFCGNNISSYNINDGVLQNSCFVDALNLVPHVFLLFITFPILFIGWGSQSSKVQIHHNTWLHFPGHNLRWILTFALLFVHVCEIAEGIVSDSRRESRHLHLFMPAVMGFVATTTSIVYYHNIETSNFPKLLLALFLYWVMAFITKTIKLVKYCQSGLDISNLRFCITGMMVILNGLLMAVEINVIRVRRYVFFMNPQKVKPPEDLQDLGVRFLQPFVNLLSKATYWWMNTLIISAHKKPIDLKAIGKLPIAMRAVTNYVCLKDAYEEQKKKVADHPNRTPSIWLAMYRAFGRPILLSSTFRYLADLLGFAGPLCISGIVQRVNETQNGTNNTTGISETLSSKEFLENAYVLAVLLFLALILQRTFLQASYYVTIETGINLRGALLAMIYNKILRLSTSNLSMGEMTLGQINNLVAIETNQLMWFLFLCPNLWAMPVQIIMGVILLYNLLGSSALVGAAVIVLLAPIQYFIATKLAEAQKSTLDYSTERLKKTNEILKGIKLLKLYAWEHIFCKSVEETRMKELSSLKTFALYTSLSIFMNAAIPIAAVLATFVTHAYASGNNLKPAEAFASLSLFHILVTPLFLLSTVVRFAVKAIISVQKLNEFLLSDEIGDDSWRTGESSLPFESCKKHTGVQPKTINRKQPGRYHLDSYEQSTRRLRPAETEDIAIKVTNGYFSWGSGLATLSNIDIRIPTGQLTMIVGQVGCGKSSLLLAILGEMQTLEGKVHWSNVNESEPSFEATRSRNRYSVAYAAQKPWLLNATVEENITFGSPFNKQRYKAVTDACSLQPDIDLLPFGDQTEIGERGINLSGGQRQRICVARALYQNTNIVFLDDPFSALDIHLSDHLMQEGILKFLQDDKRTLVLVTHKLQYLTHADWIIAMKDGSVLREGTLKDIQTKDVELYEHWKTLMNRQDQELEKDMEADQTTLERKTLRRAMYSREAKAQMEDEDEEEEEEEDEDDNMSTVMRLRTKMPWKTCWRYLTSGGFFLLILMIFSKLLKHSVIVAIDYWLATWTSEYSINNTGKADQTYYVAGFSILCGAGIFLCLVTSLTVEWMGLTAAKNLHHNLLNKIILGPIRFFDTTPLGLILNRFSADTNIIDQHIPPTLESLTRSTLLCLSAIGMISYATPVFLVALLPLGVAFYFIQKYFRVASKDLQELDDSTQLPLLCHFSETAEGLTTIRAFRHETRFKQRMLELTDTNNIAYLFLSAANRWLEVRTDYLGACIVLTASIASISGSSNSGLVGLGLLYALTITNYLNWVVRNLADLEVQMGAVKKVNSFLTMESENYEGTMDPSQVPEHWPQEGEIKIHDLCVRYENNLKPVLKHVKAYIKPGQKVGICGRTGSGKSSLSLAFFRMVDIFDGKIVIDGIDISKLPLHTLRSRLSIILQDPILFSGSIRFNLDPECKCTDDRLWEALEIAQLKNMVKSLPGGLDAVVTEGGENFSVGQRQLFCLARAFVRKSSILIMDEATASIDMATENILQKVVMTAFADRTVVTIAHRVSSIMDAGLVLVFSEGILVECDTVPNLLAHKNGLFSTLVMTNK
Sequence of Cav3.2 (O95180 whole entry): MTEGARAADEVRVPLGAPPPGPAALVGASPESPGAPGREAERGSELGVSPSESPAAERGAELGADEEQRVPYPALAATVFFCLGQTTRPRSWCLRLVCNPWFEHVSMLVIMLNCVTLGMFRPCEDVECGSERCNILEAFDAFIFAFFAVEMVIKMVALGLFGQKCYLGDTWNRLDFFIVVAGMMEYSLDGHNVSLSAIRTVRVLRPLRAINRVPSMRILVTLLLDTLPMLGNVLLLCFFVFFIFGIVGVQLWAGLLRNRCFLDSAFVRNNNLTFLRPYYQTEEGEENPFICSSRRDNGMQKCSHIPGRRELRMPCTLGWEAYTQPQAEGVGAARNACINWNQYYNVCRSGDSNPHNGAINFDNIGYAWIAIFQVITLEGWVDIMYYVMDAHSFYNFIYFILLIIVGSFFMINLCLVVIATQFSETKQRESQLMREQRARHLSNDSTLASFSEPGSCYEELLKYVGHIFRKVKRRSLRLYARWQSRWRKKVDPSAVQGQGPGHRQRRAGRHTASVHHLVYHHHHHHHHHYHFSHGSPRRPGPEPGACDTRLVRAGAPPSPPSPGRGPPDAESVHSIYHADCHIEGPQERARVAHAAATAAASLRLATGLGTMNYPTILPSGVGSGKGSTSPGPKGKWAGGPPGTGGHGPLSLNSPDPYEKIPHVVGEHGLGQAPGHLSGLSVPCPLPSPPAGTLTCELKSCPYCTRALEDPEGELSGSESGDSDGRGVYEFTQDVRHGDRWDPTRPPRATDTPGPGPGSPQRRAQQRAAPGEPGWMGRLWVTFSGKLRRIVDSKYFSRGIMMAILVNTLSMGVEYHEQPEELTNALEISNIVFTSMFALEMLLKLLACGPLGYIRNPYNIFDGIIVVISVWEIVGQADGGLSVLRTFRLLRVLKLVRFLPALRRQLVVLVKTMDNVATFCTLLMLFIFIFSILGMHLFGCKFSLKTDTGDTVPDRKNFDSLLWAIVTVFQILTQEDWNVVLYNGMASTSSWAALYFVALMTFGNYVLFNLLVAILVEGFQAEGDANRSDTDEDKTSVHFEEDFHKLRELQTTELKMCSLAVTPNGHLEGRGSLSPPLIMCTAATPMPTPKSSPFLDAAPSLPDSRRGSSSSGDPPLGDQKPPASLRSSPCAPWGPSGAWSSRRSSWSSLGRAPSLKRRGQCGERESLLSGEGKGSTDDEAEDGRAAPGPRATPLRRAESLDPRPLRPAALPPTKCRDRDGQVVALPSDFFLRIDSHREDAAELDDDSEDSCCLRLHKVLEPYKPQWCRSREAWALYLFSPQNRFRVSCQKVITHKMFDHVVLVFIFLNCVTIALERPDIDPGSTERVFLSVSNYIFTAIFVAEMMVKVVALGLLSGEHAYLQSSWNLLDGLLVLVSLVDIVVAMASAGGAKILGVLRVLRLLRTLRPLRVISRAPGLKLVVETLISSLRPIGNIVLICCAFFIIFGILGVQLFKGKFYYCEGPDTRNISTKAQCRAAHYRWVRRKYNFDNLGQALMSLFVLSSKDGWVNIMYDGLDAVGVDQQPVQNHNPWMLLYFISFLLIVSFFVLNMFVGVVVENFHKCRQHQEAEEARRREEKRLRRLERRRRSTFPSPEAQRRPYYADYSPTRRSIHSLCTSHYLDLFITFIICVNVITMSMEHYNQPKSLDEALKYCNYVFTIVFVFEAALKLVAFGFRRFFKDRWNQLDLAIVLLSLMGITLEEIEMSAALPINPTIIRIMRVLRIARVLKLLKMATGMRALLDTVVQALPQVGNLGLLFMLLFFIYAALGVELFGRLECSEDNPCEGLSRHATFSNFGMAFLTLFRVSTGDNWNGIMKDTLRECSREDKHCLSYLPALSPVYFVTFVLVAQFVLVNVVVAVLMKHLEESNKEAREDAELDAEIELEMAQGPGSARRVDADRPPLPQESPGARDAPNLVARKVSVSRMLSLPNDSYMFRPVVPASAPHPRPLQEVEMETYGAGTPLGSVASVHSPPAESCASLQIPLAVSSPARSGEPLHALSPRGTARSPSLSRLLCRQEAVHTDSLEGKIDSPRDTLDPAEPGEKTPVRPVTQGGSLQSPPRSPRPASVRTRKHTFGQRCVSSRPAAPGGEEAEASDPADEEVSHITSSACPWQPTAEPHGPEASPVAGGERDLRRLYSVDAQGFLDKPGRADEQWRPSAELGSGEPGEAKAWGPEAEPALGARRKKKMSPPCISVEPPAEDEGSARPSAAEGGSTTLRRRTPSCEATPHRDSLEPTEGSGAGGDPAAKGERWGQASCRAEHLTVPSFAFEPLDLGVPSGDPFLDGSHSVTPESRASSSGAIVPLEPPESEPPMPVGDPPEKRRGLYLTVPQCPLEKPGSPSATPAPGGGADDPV
T3 sequence (P51787 whole entry): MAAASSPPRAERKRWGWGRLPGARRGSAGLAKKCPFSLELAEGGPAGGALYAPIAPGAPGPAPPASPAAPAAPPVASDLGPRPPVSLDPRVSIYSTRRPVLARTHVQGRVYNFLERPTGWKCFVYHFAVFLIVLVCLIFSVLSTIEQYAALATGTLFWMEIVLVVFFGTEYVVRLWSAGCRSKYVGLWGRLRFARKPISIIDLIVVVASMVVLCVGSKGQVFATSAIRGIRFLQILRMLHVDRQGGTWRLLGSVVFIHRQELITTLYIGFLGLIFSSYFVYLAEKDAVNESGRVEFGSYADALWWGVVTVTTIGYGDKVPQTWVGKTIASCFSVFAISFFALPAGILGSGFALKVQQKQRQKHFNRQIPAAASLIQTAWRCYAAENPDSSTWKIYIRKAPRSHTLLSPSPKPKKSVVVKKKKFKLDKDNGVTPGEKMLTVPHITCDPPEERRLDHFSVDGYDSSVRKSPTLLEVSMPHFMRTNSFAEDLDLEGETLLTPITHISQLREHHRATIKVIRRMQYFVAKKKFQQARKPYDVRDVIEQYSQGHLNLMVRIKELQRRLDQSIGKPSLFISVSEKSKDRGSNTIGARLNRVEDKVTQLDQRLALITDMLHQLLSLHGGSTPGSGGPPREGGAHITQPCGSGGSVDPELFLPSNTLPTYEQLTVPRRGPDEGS

[Ba] [Barium]
Mean % inhibition (positive control) (Kir3.1/3.4): 86.6%
Mean % inhibition (positive control) (Kir2.1): 85.4%

C[C@]12CC[C@H](O)C[C@@]1(O)CC[C@@H]1[C@@H]2CC[C@]2(C)[C@@H](c3ccc(=O)oc3)CC[C@]12O [telocinobufagin, (3β,5β)-3,5,14-trihydroxy-bufa-20,22-dienolide]
antinociceptive effect compared to the other analgesics, phase 1 (male Swiss mice [1]; phase 1, 10 mg/kg oral vs diclofenac 50, dipyrone 50, codeine 20 mg/kg i.p., p<0.05): pretty much superior to that of the other analgesics
licks blocked compared to the control group, phase 1 (male Swiss mice [1]; phase 1, 10 mg/kg oral, p<0.005): ~80%
effect of naloxone on the analgesic action, phase 1 (male Swiss mice [1]; phase 1, naloxone 5 mg/kg i.p., morphine 10 mg/kg, telocinobufagin 5 mg/kg oral): did not block
antinociceptive effect, mol to mol, greater than that of morphine, phase 1 (male Swiss mice [1]; phase 1, telocinobufagin 10 mg/kg oral vs morphine sulfate 10 mg/kg i.p.): ~40%
antinociceptive effect compared to the other analgesics, phase 2 (male Swiss mice [1]; phase 2, 5 mg/kg oral vs diclofenac 50, dipyrone 50, codeine 20 mg/kg i.p., p<0.05): pretty much superior to that of the other analgesics
licks blocked compared to the control group, phase 2 (male Swiss mice [1]; phase 2, 10 mg/kg oral, p<0.0001): ~100%
effect of naloxone on the analgesic action, phase 2 (male Swiss mice [1]; phase 2, naloxone 5 mg/kg i.p., morphine 10 mg/kg, telocinobufagin 5 mg/kg oral): did not block
antinociceptive effect, mol to mol, greater than that of morphine, phase 2 (male Swiss mice [1]; phase 2, telocinobufagin 5 mg/kg oral vs morphine sulfate 10 mg/kg i.p.): ~58%
alteration of the cardiac contraction force (left atrium of rats; 10^−3 M during 12 minutes, p>0.05): did not produce significant alteration
alteration of the cardiac contraction force compared to the control (left atrium of rats; 10^−7 to 10^−4 M): no significant alteration
alteration of the spontaneous mechanical cardiac activity compared to the control (right atrium of rats): no significant alteration
antinociceptive effect compared to the other analgesics (male Swiss mice [2]; 10 mg/kg oral vs diclofenac 50, dipyrone 50, codeine 20 mg/kg i.p., p<0.05): pretty much superior to the effects of the other analgesics
contortions blocked compared to the control group (male Swiss mice [2]; 10 mg/kg oral, mice, p<0.001): ~90%
effect of naloxone on the analgesic action (male Swiss mice [2]; naloxone 5 mg/kg i.p., morphine 10 mg/kg i.p., telocinobufagin 10 mg/kg oral): did not block
antinociceptive effect, mol to mol, greater than that of morphine (male Swiss mice [2]; telocinobufagin 10 mg/kg oral vs morphine sulfate 10 mg/kg i.p.): ~40%
duration of the analgesic effects on hyperalgesia ([3]; intraperitoneal 5 mg/kg): around 6 hours
increase of the response compared to the control group (RPtest), hyperalgesia ([3]; intraperitoneal 5 mg/kg, p<0.001): approximately 9 times
effect of naloxone on the analgesic action, hyperalgesia [3, 7]: did not block significantly
duration of the analgesic effects on hyperalgesia ([3]; oral 20 mg/kg): around 6 hours
increase of the response compared to the control group (RPtest), hyperalgesia ([3]; oral 20 mg/kg, p<0.05): ~3.9 times
antinociceptive effect, mol to mol, greater than that of morphine, hyperalgesia ([3]; telocinobufagin 5 mg/kg i.p. (20 mg/kg oral) vs morphine sulfate 10 mg/kg i.p.): approximately 900%
antinociceptive effect compared to the other analgesics, hyperalgesia ([3]; vs diclofenac, codeine, dipyrone, amitriptyline, carbamazepine, prednisone, p<0.05): pretty much superior to that of the other analgesics
effect of naloxone on the analgesic action (male Swiss mice [4]; naloxone 5 mg/kg i.p., morphine dose printed as 'mg/kg', telocinobufagin 5 mg/kg oral): did not block
increase of the response (latency) compared to control group (male Swiss mice [4]; oral, dose printed as 'mg/kg' without figure, p<0.001): approximately 450%
solubility in 50% DMSO (Solubility; 50% DMSO (v/v in water)): soluble
solubility in ethanol (Solubility; ethanol (100%)): soluble
solubility in chloroform (Solubility; pure chloroform): soluble
solubility in water (Solubility; water): insoluble
antinociceptive effect (tail flick latency) (male Swiss mice [5]; doses of 2.5 and 5 mg/kg oral, p<0.05): significant antinociceptive effects
effect of naloxone on the analgesic action (male Swiss mice [5]; naloxone 5 mg/kg i.p., morphine 10 mg/kg, telocinobufagin 5 mg/kg oral): did not block
antinociceptive effect on allodynia ([6]; 5 mg/kg i.p.): blocking completely the allodynia
antinociceptive effect on allodynia ([6]; 20 mg/kg oral): blocking completely the allodynia
duration of the analgesic effects on allodynia ([6]; intraperitoneal 5 mg/kg): around 6 hours
reversion of the allodynia (compared to RP) ([6]; intraperitoneal TBC 5 mg/kg): reverted completely the allodynia
effect of naloxone on the analgesic action, allodynia [6, 7]: did not block significantly
duration of the analgesic effects on allodynia ([6]; oral 20 mg/kg): around 6 hours
reversion of the allodynia (compared to RP) ([6]; oral TBC 20 mg/kg): reverted completely the allodynia

CCS(=O)(=O)N(C)[C@H]1c2cc(C#N)ccc2OC(C)(C)[C@@H]1O [Chromanol-293B]
Mean % inhibition (positive control) (KvLQT/minK): 87.8%

O=C(NCC1CCCCN1)c1cc(OCC(F)(F)F)ccc1OCC(F)(F)F (centres unmarked) [Flecainide]
inhibition at 100 µM (Kv4.3): 96.1%

[Ni] [Nickel]
Mean % inhibition (positive control) (Cav3.2): 76.6%

Nc1ccncc1 [4-AP]
Mean % inhibition (positive control) (Kv1.5): 85.1%

COc1ccc(Cl)cc1C(=O)NCCc1ccc(S(=O)(=O)NC(=O)NC2CCCCC2)cc1 [Glibenclamide]
inhibition at 1 µM (Kir6.2/SUR2A): 79.8%
